Measurements taken from PMC6563033, “Purification and Characterization of Antioxidant Peptides Derived from Protein Hydrolysate of the Marine Bivalve Mollusk Tergillarca granosa” (Marine Drugs, 2019).
Marks after values point to notes of the source that are not given here. No end group written: not given here.

What was measured:
Assay type in all cases: biochemical
[1] = DPPH radical scavenging activity; conditions: isolated APs; 0.02% ethanolic DPPH; EC50 from linear relation of scavenging rate and concentration; mean ± SD, n = 3
Method: (§1) The DPPH radical, hydroxyl radical, superoxide anion radical, and ABTS cation radical scavenging activities were measured according to the previous methods. The results were expressed as a half elimination ratio (EC50) defined as the concentration by which a sample caused a 50% decrease of the initial concentration of DPPH radical, hydroxyl radical, superoxide anion radical, and ABTS cation radical, respectively, and the calculation method of EC50 was according to linear relationship of radical scavenging rates and concentrations of samples [6, 26].
Two millilitres of samples consisting of DW and different concentrations of the analytes were placed in cuvettes, and 500 μL of an ethanolic solution of DPPH (0.02%) and 1.0 mL of ethanol were added. A control sample containing the DPPH solution without the sample was also prepared. In the blank, the DPPH solution was substituted with ethanol. The antioxidant activity of the sample was evaluated using the inhibition percentage of the DPPH radical with the following equation: DPPH radical scavenging activity (%) = (A0 + Ab − A)/A0 × 100% (2) where A is the absorbance rate of the sample, A0 is the control group absorbance, and Ab is the blank absorbance.

[2] = ABTS cation radical scavenging activity; conditions: isolated APs; 5 mM PBS pH 7.4, 10 min, absorbance 734 nm; mean ± SD, n = 3
Method: as §1
The ABTS radical cation was generated by mixing ABTS stock solution (7 mM) with potassium persulphate (2.45 mM). The mixture was left in the dark at room temperature for 16 h. The ABTS radical solution was diluted in 5 mM PBS pH 7.4, to an absorbance of 0.70 ± 0.02 at 734 nm. One milliliter of diluted ABTS radical solution was mixed with one milliliter of different concentrations of samples. 10 min later, the absorbance was measured at 734 nm against the corresponding blank. The ABTS scavenging activity of samples was calculated using the following equation: ABTS scavenging activity (%) = [(Acontrol − Asample)/Acontrol] × 100% (5) where Acontrol is the absorbance without sample and Asample is the absorbance with sample.

[3] = Hydroxyl radical scavenging activity (1,10-phenanthroline/FeSO4/H2O2); conditions: isolated APs; 37 °C, 60 min, absorbance 536 nm; mean ± SD, n = 3
Method: as §1
First, 1.0 mL of a 1.87 mM 1,10-phenanthroline solution and 2.0 mL of the sample were added to a screw-capped tube and mixed. Then, 1.0 mL of a FeSO4·7H2O solution (1.87 mM) was added to the mixture. The reaction was initiated by adding 1.0 mL of H2O2 (0.03%, v/v). After being incubated at 37 °C for 60 min in a water bath, the absorbance of the reaction mixture was measured at 536 nm against a reagent blank. […] The hydroxyl radical scavenging activity was calculated using the following formula: Hydroxyl radical scavenging activity (%) = [(As − An)/(Ab − An)] × 100% (3) where As, An, and Ab are the absorbance values determined at 536 nm of the sample, the negative control, and the blank after the reaction, respectively.

[4] = Superoxide anion radical scavenging activity (NBT/NADH/PMS); conditions: isolated APs; 25 °C, 5 min, absorbance 560 nm; mean ± SD, n = 3
Method: as §1
The superoxide anions were generated in 1 mL of nitrotetrazolium blue chloride (2.52 mM), 1 mL of nicotinamide adenine dinucleotide hydride (NADH) ([…]) and 1 mL of different sample concentrations. The reaction was initiated by adding 1 ml of phenazine methosulphate solution (120 μM) to the reaction mixture. The absorbance was measured at 560 nm against the corresponding blank after 5 min incubation at 25 °C. The superoxide anion radical scavenging capacity was calculated using the following equation: Superoxide anion radical scavenging activity (%) = [(Acontrol − Asample)/Acontrol] × 100% (4) where Acontrol is the absorbance without sample and Asample is the absorbance with sample.

Half Elimination Ratio (EC50) DPPH Radical [1]: 1.82 ± 0.16 ^c mg/mL | Half Elimination Ratio (EC50) ABTS Cation Radical [2]: 2.56 ± 0.23 ^b mg/mL | Half Elimination Ratio (EC50) Hydroxyl Radical [3]: 1.54 ± 0.11 ^b mg/mL | Half Elimination Ratio (EC50) Superoxide Anion Radical [4]: 2.49 ± 0.17 ^b mg/mL
Substance: WIDPDG [TGP-2, antioxidant peptide from blood cockle (T. granosa) protein hydrolysate]
